{"source": "ChEMBL document CHEMBL1157176", "about": "“Total syntheses of (+/-)-ovalicin, C4(S *)-isomer, and its C5-analogs and anti-trypanosomal activities” (Bioorg Med Chem, 2008)", "note": "pIC50: −log10 of the molar value. Activity calls are given as the source filed them. The calls are words filed in the database; no cut-off is given here.", "data": [{"system": "Trypanosoma brucei", "test": "Antitrypanosomal activity against Trypanosoma brucei 427 after 48 hrs by luciferase assay", "type": "functional, organism-based", "conditions": "Trypanosoma brucei, 427, 48 h", "values": [{"smiles": "CO[C@@H]1[C@]2(CC[C@H](O[Si](C)(C)C(C)(C)C)[C@@]1(O)/C(C)=C/CC=C(C)C)CO2", "note": "(relative stereo)", "pIC50": 6.55}, {"smiles": "CO[C@@H]1[C@@H](OC(=O)c2ccccc2)CC[C@]2(CO2)[C@]1(O)/C(C)=C/CC=C(C)C", "note": "(relative stereo)", "pIC50": 5.38}, {"smiles": "CO[C@@H]1[C@H](O[Si](C)(C)C(C)(C)C)CC[C@]2(CO2)[C@@]1(O)/C(C)=C/CC=C(C)C", "note": "(relative stereo)", "pIC50": 6.40}, {"smiles": "O=C(O[C@@H]1CC[C@]2(CO2)[C@@H](O)[C@H]1O)c1ccccc1", "note": "(relative stereo)", "pIC50": 6.14}, {"smiles": "O=C(O[C@H]1CC[C@]2(CO2)[C@H](O)[C@@H]1O)c1ccccc1", "note": "(relative stereo)", "pIC50": 3.49}, {"smiles": "CO[C@@H]1C(=O)CC[C@]2(CO2)[C@]1(O)/C(C)=C/CC=C(C)C", "note": "(relative stereo)", "pIC50": 4.38}, {"smiles": "CO[C@H]1C(=O)[C@]2(CC[C@@H]1OC(=O)c1ccccc1)CO2", "note": "(relative stereo)", "pIC50": 4.33}]}, {"system": "HL-60", "test": "Antiproliferative activity against human HL60 cells", "type": "functional, cell-based", "conditions": "not given", "values": [{"smiles": "CO[C@@H]1C(=O)CC[C@]2(CO2)[C@]1(O)[C@@]1(C)O[C@@H]1CC=C(C)C", "note": "(relative stereo)", "Activity": "Active"}]}]}
